Assay results as given in PubChem BioAssay AID330 (DTP/NCI, 2004).
Several values for one entry are separate records, joined by “and”; a condition that tells them apart may be missing. Identical values can stand only once. Inconclusive results and toxic doses are left out.

Tested on: P388 leukemia ip, CD2F1 mice, survival T/C
Test: NCI In Vivo Anticancer Drug Screen. Data for tumor model P388 Leukemia (intraperitoneal) in CD2F1 (CDF1) mice
Conditions: endpoint: median survival time, higher = longer survival
Procedure, shortened: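 Mice carrying the transplanted tumor received test compound or vehicle. Survival was recorded in each group, and the value is the treated-group measurement divided by that of the vehicle-treated control group.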

[1] = dose: 50.0 mg/kg/injection, schedule: Q01DX005 (ip), vehicle: saline with Tween-80
[2] = dose: 100.0 mg/kg/injection, schedule: Q01DX005 (ip), vehicle: saline with Tween-80
[3] = dose: 200.0 mg/kg/injection, schedule: Q01DX005 (ip), vehicle: saline with Tween-80
[4] = dose: 100.0 mg/kg/injection, schedule: Q04DX002 (ip), vehicle: saline with Tween-80
[5] = dose: 50.0 mg/kg/injection, schedule: Q01DX009 (ip), vehicle: saline

## O=C1Nc2ccccc2C12Nc1ccccc1S2 (stereo not drawn)
[1]
  T/C: 100 % of control
[2]
  T/C: 101 % of control
[3]
  T/C: 110 % of control

## CCOC(=O)c1ccc2cc(C)c3ccc(N)nc3n2c1=O
dose: 25.0 mg/kg/injection, schedule: Q01DX005 (ip), vehicle: saline with Tween-80
  T/C: 93 % of control
[1]
  T/C: 98 % of control
[2]
  T/C: 92 % of control and 93 % of control
[3]
  T/C: 88 % of control

## Cn1c(=O)sc2ccccc21
dose: 25.0 mg/kg/injection, schedule: Q04DX002 (ip), vehicle: saline with Tween-80
  T/C: 102 % of control
dose: 50.0 mg/kg/injection, schedule: Q04DX002 (ip), vehicle: saline with Tween-80
  T/C: 104 % of control
[4]
  T/C: 110 % of control

## CC(C)(C)/C=C/N=NNc1ccccn1
dose: 100.0 mg/kg/injection, schedule: Q01DX001 (ip), vehicle: Klucel (hydroxypropylcellulose) (HPC)
  T/C: 97 % of control
dose: 200.0 mg/kg/injection, schedule: Q01DX001 (ip), vehicle: Klucel (hydroxypropylcellulose) (HPC)
  T/C: 92 % of control
dose: 400.0 mg/kg/injection, schedule: Q01DX001 (ip), vehicle: Klucel (hydroxypropylcellulose) (HPC)
  T/C: 94 % of control

## c1ncc2[nH]cnc2n1
dose: 100.0 mg/kg/injection, schedule: Q01DX009 (ip), vehicle: saline sonified
  T/C: 100 % of control
dose: 100.0 mg/kg/injection, schedule: Q04DX003 (ip), vehicle: saline
  T/C: 104 % of control
dose: 200.0 mg/kg/injection, schedule: Q01DX009 (ip), vehicle: saline sonified
  T/C: 104 % of control
dose: 200.0 mg/kg/injection, schedule: Q04DX003 (ip), vehicle: saline
  T/C: 104 % of control
dose: 400.0 mg/kg/injection, schedule: Q01DX009 (ip), vehicle: saline sonified
  T/C: 100 % of control
dose: 400.0 mg/kg/injection, schedule: Q04DX003 (ip), vehicle: saline
  T/C: 104 % of control

## COc1cc2ccc(/C=N/NC(N)=S)cc2cc1OC
dose: 12.5 mg/kg/injection, schedule: Q01DX009 (ip), vehicle: water
  T/C: 96 % of control
dose: 25.0 mg/kg/injection, schedule: Q01DX009 (ip), vehicle: water
  T/C: 90 % of control
dose: 50.0 mg/kg/injection, schedule: Q01DX009 (ip), vehicle: water
  T/C: 96 % of control
dose: 100.0 mg/kg/injection, schedule: Q01DX009 (ip), vehicle: water
  T/C: 91 % of control
dose: 200.0 mg/kg/injection, schedule: Q01DX009 (ip), vehicle: water
  T/C: 89 % of control

## O=C(n1ccnc1)C(F)(F)C(F)(F)F
dose: 60.0 mg/kg/injection, schedule: Q01DX005 (ip), vehicle: saline
  T/C: 95 % of control
dose: 120.0 mg/kg/injection, schedule: Q01DX005 (ip), vehicle: saline
  T/C: 101 % of control
dose: 240.0 mg/kg/injection, schedule: Q01DX005 (ip), vehicle: saline
  T/C: 96 % of control

## CN(C)c1ccc(/C=C(\C#N)C(N)=S)cc1
[5]
  T/C: 100 % of control
dose: 100.0 mg/kg/injection, schedule: Q01DX009 (ip), vehicle: saline
  T/C: 100 % of control
dose: 200.0 mg/kg/injection, schedule: Q01DX009 (ip), vehicle: saline
  T/C: 106 % of control

## CS/C(N)=N/NC(=O)CCC(=O)Nc1cc(C)ccc1C
[4]
  T/C: 102 % of control
dose: 200.0 mg/kg/injection, schedule: Q04DX002 (ip), vehicle: saline with Tween-80
  T/C: 101 % of control
dose: 400.0 mg/kg/injection, schedule: Q04DX002 (ip), vehicle: saline with Tween-80
  T/C: 90 % of control

## Cc1cccc(N2CCN(S(C)(=O)=O)CC2)c1
dose: 100.0 mg/kg/injection, schedule: Q04DX003 (ip), vehicle: saline with Tween-80
  T/C: 101 % of control
dose: 200.0 mg/kg/injection, schedule: Q04DX003 (ip), vehicle: saline with Tween-80
  T/C: 102 % of control
dose: 400.0 mg/kg/injection, schedule: Q04DX003 (ip), vehicle: saline with Tween-80
  T/C: 110 % of control

## Oc1ccccc1-c1nc2c3ccccc3c3ccccc3c2[nH]1
[1]
  T/C: 113 % of control
[2]
  T/C: 111 % of control
[3]
  T/C: 113 % of control

## Cn1cnc2c(NCCO)ncnc21
[1]
  T/C: 118 % of control
[2]
  T/C: 100 % of control
[3]
  T/C: 103 % of control

## CS(=O)(=O)OC1C(COC(=O)c2ccccc2)OC2C1Oc1nc(=O)ccn12 (stereo not drawn)
dose: 50.0 mg/kg/injection, schedule: Q01DX005 (ip), vehicle: Klucel (hydroxypropylcellulose) (HPC)
  T/C: 98 % of control
dose: 100.0 mg/kg/injection, schedule: Q01DX005 (ip), vehicle: Klucel (hydroxypropylcellulose) (HPC)
  T/C: 99 % of control
dose: 200.0 mg/kg/injection, schedule: Q01DX005 (ip), vehicle: Klucel (hydroxypropylcellulose) (HPC)
  T/C: 101 % of control

## COC(=O)/C=C(\I)C(=O)OC
dose: 3.13 mg/kg/injection, schedule: Q01DX009 (ip), vehicle: saline with Tween-80
  T/C: 104 % of control
dose: 6.25 mg/kg/injection, schedule: Q01DX009 (ip), vehicle: saline with Tween-80
  T/C: 101 % of control
dose: 12.5 mg/kg/injection, schedule: Q01DX009 (ip), vehicle: saline with Tween-80
  T/C: 92 % of control

## COc1cc2c(c(OC)c1OC)-c1ccc(OC)c(=O)cc1[C@@H](NC(=O)c1ccccc1)CC2
dose: 0.5 mg/kg/injection, schedule: Q01DX009 (ip), vehicle: Klucel (hydroxypropylcellulose) (HPC)
  T/C: 156 % of control
dose: 0.5 mg/kg/injection, schedule: Q01DX009 (ip), vehicle: saline with Tween-80
  T/C: 121 % of control
dose: 0.63 mg/kg/injection, schedule: Q01DX009 (ip), vehicle: distilled water + Tween-80
  T/C: 154 % of control
dose: 1.0 mg/kg/injection, schedule: Q01DX009 (ip), vehicle: Klucel (hydroxypropylcellulose) (HPC)
  T/C: 182 % of control
dose: 1.25 mg/kg/injection, schedule: Q01DX009 (ip), vehicle: distilled water + Tween-80
  T/C: 218 % of control
dose: 2.0 mg/kg/injection, schedule: Q01DX009 (ip), vehicle: saline with Tween-80
  T/C: 165 % of control
dose: 2.5 mg/kg/injection, schedule: Q01DX009 (ip), vehicle: distilled water + Tween-80
  T/C: 261 % of control
dose: 4.0 mg/kg/injection, schedule: Q01DX009 (ip), vehicle: saline with Tween-80
  T/C: 86 % of control
dose: 5.0 mg/kg/injection, schedule: Q04DX003 (ip), vehicle: saline sonified
  T/C: 109 % of control
dose: 5.0 mg/kg/injection, schedule: Q04DX003 (ip), vehicle: saline with Tween-80
  T/C: 186 % of control
dose: 7.5 mg/kg/injection, schedule: Q04DX003 (ip), vehicle: saline sonified
  T/C: 154 % of control

## O=C(O)[C@@H](NC(=O)C(Cl)(Cl)Cl)[C@@H]1CC(Br)=NO1
dose: 15.0 mg/kg/injection, schedule: Q01DX005 (ip), vehicle: distilled water + Tween-80
  T/C: 107 % of control and 118 % of control and 122 % of control
dose: 30.0 mg/kg/injection, schedule: Q01DX005 (ip), vehicle: distilled water + Tween-80
  T/C: 107 % of control
dose: 120.0 mg/kg/injection, schedule: Q01DX005 (ip), vehicle: distilled water + Tween-80
  T/C: 114 % of control and 98 % of control

## Cn1c(=O)c2c(ncn2CCCl)n(C)c1=O
dose: 12.5 mg/kg/injection, schedule: Q01DX005 (ip), vehicle: distilled water + Tween-80
  T/C: 100 % of control
dose: 25.0 mg/kg/injection, schedule: Q01DX005 (ip), vehicle: distilled water + Tween-80
  T/C: 105 % of control
dose: 50.0 mg/kg/injection, schedule: Q01DX005 (ip), vehicle: distilled water + Tween-80
  T/C: 105 % of control
dose: 100.0 mg/kg/injection, schedule: Q01DX005 (ip), vehicle: distilled water + Tween-80
  T/C: 102 % of control

## O=C(O)CC(=O)Nc1ccccc1S
dose: 50.0 mg/kg/injection, schedule: Q01DX009 (ip), vehicle: saline with Tween-80
  T/C: 102 % of control
dose: 100.0 mg/kg/injection, schedule: Q01DX009 (ip), vehicle: saline with Tween-80
  T/C: 90 % of control
dose: 200.0 mg/kg/injection, schedule: Q01DX009 (ip), vehicle: saline with Tween-80
  T/C: 101 % of control

## Cc1cc(N2C(=O)CCSC2=S)ccc1F
dose: 12.5 mg/kg/injection, schedule: Q01DX009 (ip), vehicle: saline
  T/C: 101 % of control
dose: 25.0 mg/kg/injection, schedule: Q01DX009 (ip), vehicle: saline
  T/C: 108 % of control
[5]
  T/C: 108 % of control
dose: 50.0 mg/kg/injection, schedule: Q01DX009 (ip), vehicle: suspension in saline
  T/C: 91 % of control
dose: 100.0 mg/kg/injection, schedule: Q01DX009 (ip), vehicle: suspension in saline
  T/C: 94 % of control
dose: 200.0 mg/kg/injection, schedule: Q01DX009 (ip), vehicle: suspension in saline
  T/C: 88 % of control

## C=C1N=NN(c2ccc(C)cc2)C1N1CCOCC1 (stereo not drawn)
dose: 60.0 mg/kg/injection, schedule: Q01DX005 (ip), vehicle: Klucel (hydroxypropylcellulose) (HPC)
  T/C: 93 % of control
dose: 120.0 mg/kg/injection, schedule: Q01DX005 (ip), vehicle: Klucel (hydroxypropylcellulose) (HPC)
  T/C: 99 % of control
dose: 240.0 mg/kg/injection, schedule: Q01DX005 (ip), vehicle: Klucel (hydroxypropylcellulose) (HPC)
  T/C: 90 % of control

## O=S(=O)(Nc1ccc(Cl)c(C(F)(F)F)c1)c1ccc(F)cc1
[1]
  T/C: 100 % of control
[2]
  T/C: 91 % of control
[3]
  T/C: 98 % of control

## Nc1[nH]c(=O)ncc1-c1ccc(Cl)cc1
dose: 60.0 mg/kg/injection, schedule: Q01DX005 (ip), vehicle: saline with Tween-80
  T/C: 97 % of control
dose: 120.0 mg/kg/injection, schedule: Q01DX005 (ip), vehicle: saline with Tween-80
  T/C: 96 % of control
